PubChem BioAssay AID330 (DTP/NCI, 2004)
“And” between values parts separate entries of the source, which are not always exact repeats. Equal values may be shown once. Toxic doses and inconclusive results are not listed. How the source made its calls: active means survival T/C of 150% or more; inactive means T/C below 125% in these data.

System: P388 leukemia ip, CD2F1 mice, survival T/C
Experiment: NCI In Vivo Anticancer Drug Screen. Data for tumor model P388 Leukemia (intraperitoneal) in CD2F1 (CDF1) mice
Conditions: endpoint: median survival time, higher = longer survival
Procedure, shortened: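 Mice carrying the transplanted tumor received test compound or vehicle. Survival was recorded in each group, and the value is the treated-group measurement divided by that of the vehicle-treated control group.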

[1] = dose: 60.0 mg/kg/injection, schedule: Q01DX005 (ip), vehicle: saline with Tween-80
[2] = dose: 120.0 mg/kg/injection, schedule: Q01DX005 (ip), vehicle: saline with Tween-80
[3] = dose: 12.5 mg/kg/injection, schedule: Q01DX009 (ip), vehicle: saline with Tween-80
[4] = dose: 25.0 mg/kg/injection, schedule: Q01DX009 (ip), vehicle: saline with Tween-80
[5] = dose: 50.0 mg/kg/injection, schedule: Q01DX009 (ip), vehicle: saline with Tween-80
[6] = dose: 100.0 mg/kg/injection, schedule: Q01DX009 (ip), vehicle: saline with Tween-80
[7] = dose: 50.0 mg/kg/injection, schedule: Q01DX009 (ip), vehicle: Klucel (hydroxypropylcellulose) (HPC)
[8] = dose: 100.0 mg/kg/injection, schedule: Q01DX009 (ip), vehicle: Klucel (hydroxypropylcellulose) (HPC)
[9] = dose: 25.0 mg/kg/injection, schedule: Q01DX009 (ip), vehicle: Klucel (hydroxypropylcellulose) (HPC)
[10] = dose: 60.0 mg/kg/injection, schedule: Q01DX005 (ip), vehicle: Klucel (hydroxypropylcellulose) (HPC)
[11] = dose: 120.0 mg/kg/injection, schedule: Q01DX005 (ip), vehicle: Klucel (hydroxypropylcellulose) (HPC)
[12] = dose: 240.0 mg/kg/injection, schedule: Q01DX005 (ip), vehicle: Klucel (hydroxypropylcellulose) (HPC)
[13] = dose: 50.0 mg/kg/injection, schedule: Q01DX005 (ip), vehicle: saline with Tween-80
[14] = dose: 100.0 mg/kg/injection, schedule: Q01DX005 (ip), vehicle: saline with Tween-80
[15] = dose: 200.0 mg/kg/injection, schedule: Q01DX005 (ip), vehicle: saline with Tween-80
[16] = dose: 60.0 mg/kg/injection, schedule: Q01DX005 (ip), vehicle: saline
[17] = dose: 120.0 mg/kg/injection, schedule: Q01DX005 (ip), vehicle: saline
[18] = dose: 240.0 mg/kg/injection, schedule: Q01DX005 (ip), vehicle: saline
[19] = dose: 200.0 mg/kg/injection, schedule: Q01DX009 (ip), vehicle: saline with Tween-80
[20] = dose: 100.0 mg/kg/injection, schedule: Q01DX001 (ip), vehicle: saline with Tween-80
[21] = dose: 200.0 mg/kg/injection, schedule: Q01DX001 (ip), vehicle: saline with Tween-80
[22] = dose: 400.0 mg/kg/injection, schedule: Q01DX001 (ip), vehicle: saline with Tween-80

Measured: T/C

C[Si](C)(C[P+](=O)[O][Sn]([CH3])([CH3])[O][P+](=O)C[Si](C)(C)c1ccccc1)c1ccccc1 (centres undefined)
inactive: dose: 3.75 mg/kg/injection, schedule: Q01DX005 (ip), vehicle: saline with Tween-80 100 % of control | dose: 7.5 mg/kg/injection, schedule: Q01DX005 (ip), vehicle: saline with Tween-80 93 % of control

Cc1ccc(Cl)cc1NC(=O)COc1ccc(Cl)cc1Cl
inactive: dose: 100.0 mg/kg/injection, schedule: Q04DX003 (ip), vehicle: saline with Tween-80 100 % of control | dose: 200.0 mg/kg/injection, schedule: Q04DX003 (ip), vehicle: saline with Tween-80 100 % of control | dose: 400.0 mg/kg/injection, schedule: Q04DX003 (ip), vehicle: saline with Tween-80 90 % of control

COc1cc(C(Nc2ncccn2)c2cc3c(cc2O)OCO3)cc(OC)c1OC (centres undefined)
inactive: [1] 100 % of control | [2] 92 % of control | dose: 240.0 mg/kg/injection, schedule: Q01DX005 (ip), vehicle: saline with Tween-80 90 % of control

N#Cc1c(SCc2ccc(Cl)cc2)nsc1Nc1ccc(Cl)cc1
inactive: [3] 96 % of control | [4] 91 % of control | [5] 92 % of control

C/C=C1\CN(C)C2Cc3c([nH]c4ccccc34)C(c3c(OC)ccc4c5c([nH]c34)C3(C(=O)OC)CC4CC(CC)C3N(CC5)C4)CC1C2C(=O)OC (centres undefined)
inactive: [3] 115 % of control | [4] 106 % of control | [5] 106 % of control | [6] 91 % of control

CCOC(=O)C1=C(C(=O)c2ccccc2)C(c2ccc([N+](=O)[O-])cc2)C(C(=O)c2ccccc2)=C(C(=O)OCC)N1
inactive: dose: 7.5 mg/kg/injection, schedule: Q01DX005 (ip), vehicle: Klucel (hydroxypropylcellulose) (HPC) 94 % of control | dose: 15.0 mg/kg/injection, schedule: Q01DX005 (ip), vehicle: Klucel (hydroxypropylcellulose) (HPC) 95 % of control | dose: 30.0 mg/kg/injection, schedule: Q01DX005 (ip), vehicle: Klucel (hydroxypropylcellulose) (HPC) 100 % of control

C=C(COC(=O)Nc1cc(Cl)ccc1C)C(=O)O
inactive: [7] 105 % of control

Nc1cccc(SC2CC(=O)N(c3ccc4c(c3)OCO4)C2=O)c1 (centres undefined)
inactive: dose: 100.0 mg/kg/injection, schedule: Q04DX003 (ip), vehicle: Klucel (hydroxypropylcellulose) (HPC) 92 % of control | dose: 200.0 mg/kg/injection, schedule: Q04DX003 (ip), vehicle: Klucel (hydroxypropylcellulose) (HPC) 101 % of control

CCCCCCCCCCCCCCP(I)(N(C)C)(N(C)C)N(C)C
inactive: dose: 0.1 mg/kg/injection, schedule: Q01DX009 (ip), vehicle: saline with Tween-80 106 % of control | dose: 0.19 mg/kg/injection, schedule: Q01DX009 (ip), vehicle: saline with Tween-80 113 % of control | dose: 0.38 mg/kg/injection, schedule: Q01DX009 (ip), vehicle: saline with Tween-80 117 % of control

Cn1c2nc(-[n+]3ccc(Cc4ccccc4)cc3)nc-2c([O-])n(C)c1=O
inactive: dose: 100.0 mg/kg/injection, schedule: Q04DX002 (ip), vehicle: saline 100 % of control | dose: 200.0 mg/kg/injection, schedule: Q04DX002 (ip), vehicle: saline 99 % of control | dose: 400.0 mg/kg/injection, schedule: Q04DX002 (ip), vehicle: saline 95 % of control

CC1(C)OCC(C2OC(C)(C)OC2/C=C2/CC(=O)NC2=O)O1 (centres undefined)
inactive: [7] 100 % of control and 107 % of control | [8] 100 % of control and 120 % of control | dose: 200.0 mg/kg/injection, schedule: Q01DX009 (ip), vehicle: Klucel (hydroxypropylcellulose) (HPC) 102 % of control and 122 % of control | dose: 400.0 mg/kg/injection, schedule: Q01DX009 (ip), vehicle: Klucel (hydroxypropylcellulose) (HPC) 116 % of control

c1cc2c3c(cccc3c1)-c1nc3ccccc3nc1-2
inactive: [9] 101 % of control | [7] 100 % of control | [8] 92 % of control

Oc1c2ccccc2cc2cnc3ccccc3c12
inactive: [10] 102 % of control | [11] 109 % of control | [12] 111 % of control

CC1=C/C(=N\SC(c2ccccc2)(c2ccccc2)c2ccccc2)CCC1
inactive: dose: 100.0 mg/kg/injection, schedule: Q04DX002 (ip), vehicle: saline with Tween-80 94 % of control | dose: 200.0 mg/kg/injection, schedule: Q04DX002 (ip), vehicle: saline with Tween-80 95 % of control

O=NNc1ccc(SSc2ccc(NN=O)cc2)cc1
inactive: dose: 1.56 mg/kg/injection, schedule: Q01DX009 (ip), vehicle: water 106 % of control | dose: 3.12 mg/kg/injection, schedule: Q01DX009 (ip), vehicle: water 100 % of control and 124 % of control | dose: 6.25 mg/kg/injection, schedule: Q01DX009 (ip), vehicle: water 121 % of control | dose: 12.5 mg/kg/injection, schedule: Q01DX009 (ip), vehicle: water 123 % of control

CN1N(C)P(=S)(Oc2ccccc2)N(C)N(C)P1(=S)Oc1ccccc1 (centres undefined)
inactive: [10] 98 % of control | [11] 98 % of control | [12] 93 % of control

COC(=O)c1nc(N)nc(C(=O)OC)c1C(=O)c1cc(Cl)ccc1Cl
inactive: [1] 100 % of control | [2] 100 % of control

CC(C)(C)c1ccc(NC(=O)c2ccccc2N)cc1
inactive: [13] 101 % of control | [14] 97 % of control | [15] 92 % of control

COC1c2ccccc2CC(c2ccccc2)=NN1C(C)=O (centres undefined)
inactive: [16] 100 % of control | [17] 102 % of control | [18] 97 % of control

O=C1CCC(=O)N1CC(O)COc1ccccc1 (centres undefined)
inactive: [6] 95 % of control | [19] 95 % of control | dose: 400.0 mg/kg/injection, schedule: Q01DX009 (ip), vehicle: saline with Tween-80 100 % of control

COc1cc(Cc2nnc(NN=C(C)C)[nH]c2=O)cc(OC)c1OC
inactive: dose: 50.0 mg/kg/injection, schedule: Q01DX001 (ip), vehicle: Klucel (hydroxypropylcellulose) (HPC) 115 % of control | dose: 100.0 mg/kg/injection, schedule: Q01DX001 (ip), vehicle: Klucel (hydroxypropylcellulose) (HPC) 98 % of control and 100 % of control | dose: 200.0 mg/kg/injection, schedule: Q01DX001 (ip), vehicle: Klucel (hydroxypropylcellulose) (HPC) 100 % of control and 124 % of control | dose: 400.0 mg/kg/injection, schedule: Q01DX001 (ip), vehicle: Klucel (hydroxypropylcellulose) (HPC) 105 % of control and 116 % of control

O=C(NC1c2ccccc2Oc2ccccc21)OC1CCCCC1
inactive: [13] 92 % of control | [14] 96 % of control | [15] 100 % of control

CCOC(CC#CC(=O)N(C)C)OCC
inactive: [16] 100 % of control | [17] 107 % of control | [18] 101 % of control

OCCc1ccccn1
inactive: dose: 50.0 mg/kg/injection, schedule: Q01DX009 (ip), vehicle: saline 102 % of control | dose: 100.0 mg/kg/injection, schedule: Q01DX009 (ip), vehicle: saline 111 % of control | dose: 200.0 mg/kg/injection, schedule: Q01DX009 (ip), vehicle: saline 102 % of control | dose: 400.0 mg/kg/injection, schedule: Q01DX009 (ip), vehicle: saline 102 % of control

c1c2c(cc3c1OCN(C1CC1)C3)OCN(C1CC1)C2
inactive: [5] 94 % of control | [6] 90 % of control | [19] 96 % of control

COC(=O)C1=C/CCCN(CCC2OCC(CBr)O2)/C=C\1C(=O)OC (centres undefined)
inactive: [20] 99 % of control | [21] 102 % of control | [22] 98 % of control

CCOC(=O)c1[nH]c2c(cc(C=O)c3ccccc32)c1C
inactive: [20] 92 % of control | [21] 91 % of control | [22] 90 % of control

CCn1c(=O)[nH]c(=O)c2[nH]c(Cl)nc21
inactive: dose: 16.0 mg/kg/injection, schedule: Q01DX009 (ip), vehicle: Klucel (hydroxypropylcellulose) (HPC) 103 % of control | [9] 105 % of control | dose: 32.0 mg/kg/injection, schedule: Q01DX009 (ip), vehicle: Klucel (hydroxypropylcellulose) (HPC) 107 % of control | [7] 91 % of control | dose: 64.0 mg/kg/injection, schedule: Q01DX009 (ip), vehicle: Klucel (hydroxypropylcellulose) (HPC) 102 % of control | [8] 93 % of control

CC(C)CC(NC(=O)CNC(=O)CN)C(=O)O (centres undefined)
inactive: [16] 102 % of control | [17] 99 % of control | [18] 106 % of control
